Results as given in patent US4279897A, “(Alkoxycarbonyl)(alkyl)aminosulfenyl derivatives of phosphoramidothioate esters” (priority 1979, dated 1981).

How the values were obtained:
insects = settings: in vivo; cited from earlier work
Water solubility = format: physicochemical
mammals = settings: in vivo; cited from earlier work
[1] = tested on: house flies, Musca domestica; test: Topical insecticidal activity against house flies (percent mortality 24 h after application, LD50); format: in vivo; settings: read-out: House fly LD50
Description: Representative compounds of the invention were tested for insecticidal activity against house flies, Musca domestica. Stock 1% concentrated solutions of each of the test compounds were made in acetone, and such solutions diluted with acetone to a concentration of 0.001-0.1%. House flies were treated topically on the notum by 1 μl of each of the diluted acetone solutions and percent mortality was counted 24 hours after application.

Swiss white mice = test: Mammalian toxicity, oral, Swiss white mice (LD50); format: in vivo; settings: mouse oral, from Table II
Description: (§1) Mammalian toxicity was determined against Swiss white mice. The test compound was applied orally using corn oil as the carrier.

[2] = Mammalian toxicity, oral, Swiss white mice (LD50); format: in vivo; settings: mouse, in vivo; oral, corn oil carrier, Swiss white mice
Description: as §1

Structure (SMILES) | insecticidal activity / toxicity to insects (background) (insects) | water solubility (Water solubility) | mammalian toxicity (background) (mammals) | LD50 [1] [mg/kg] | mammalian toxicity compared with methamidophos (Swiss white mice) | LD50 [2] [mg/kg]
COP(N)(=O)SC (centres unmarked) [Methamidophos, O,S-dimethyl phosphoramidothiote] | high toxicity to both insects and mammals | freely soluble in water | high toxicity to both insects and mammals |  |  | 
CCCOC(=O)N(SNP(=O)(OC)SC)C(C)(C)C (centres unmarked) [Compound 10] |  |  |  | 1.6 | lower | 50
CCCN(SNP(=O)(OC)SC)C(=O)OC (centres unmarked) [Compound 3] |  |  |  | 1.6 |  | 
CCOC(=O)N(SNP(=O)(OC)SC)C(C)(C)C (centres unmarked) [Compound 9, O,S-Dimethyl N-[N'-(ethoxycarbonyl)-N'-(tert.-butylaminosulfenyl)]phosphoramidothioate] |  |  |  | 2.5 | lower | 50
CCCOC(=O)N(CCC)SNP(=O)(OC)SC (centres unmarked) [Compound 5] |  |  |  | 1.9 |  | 36
COP(=O)(NC(C)=O)SC (centres unmarked) [acephate] | high insecticidal activity |  | relatively low mammalian toxicity |  |  | 
CCCCCCOC(=O)N(CC)SNP(=O)(OC)SC (centres unmarked) [Compound 2] |  |  |  | 3.8 |  | 34
CCOC(=O)N(SNP(=O)(OC)SC)C(C)C (centres unmarked) [Compound 6, O,S-Dimethyl N-[N'-(ethoxycarbonyl)-N'-(isopropylaminosulfenyl)]phosphoramidothioate] |  |  |  | 1.9 | lower | 50
CCCOC(=O)N(SNP(=O)(OC)SC)C(C)C (centres unmarked) [Compound 8, O,S-dimethyl N-(N'-propoxycarbonyl-N'-isopropylaminosulfenyl)phosphoramidothioate] |  |  |  | 2.5 | lower | 50
CCCN(SNP(=O)(OC)SC)C(=O)OCC (centres unmarked) [Compound 4] |  |  |  | 2 |  | 
CCN(SNP(=O)(OC)SC)C(=O)OC (centres unmarked) [Compound 1, O,S-dimethyl N-(N'-methoxycarbonyl-N'-ethylaminosulfenyl)phosphoramidothioate] |  |  |  | 2.8 |  | 30
COP(=O)(NSN(C(=O)OC(C)C)C(C)C)SC (centres unmarked) [Compound 7, O,S-Dimethyl N-[N'-(isopropoxycarbonyl)-N'-(isopropylaminosulfenyl)]phosphoramidothioate] |  |  |  | 2.7 |  | 
